Test results published in ChEMBL document CHEMBL1909046, “DrugMatrix in vitro pharmacology data”.

Legend:
[1] = target: Beta-3 adrenergic receptor (Homo sapiens, UniProt P13945); assay: DRUGMATRIX: Adrenergic beta3 radioligand binding (ligand: [125I] Cyanopindolol); format: cell membranes, HEK293, Membrane; details: Not Active = under 50% inhibition at 10 µM
[2] = DRUGMATRIX: ATPase, Na+/K+ enzyme inhibition (substrate: ATP); format: tissue-based, Sus scrofa, Heart; details: Not Active = under 50% inhibition at 10 µM
[3] = target: C-C chemokine receptor type 5 (Homo sapiens, UniProt P51681); format: cell membranes, Membrane; details: hek293; note: in other assays of this panel Not Active means under 50% inhibition at 10 µM
C-C chemokine receptor type 5, sequence (P51681 whole entry): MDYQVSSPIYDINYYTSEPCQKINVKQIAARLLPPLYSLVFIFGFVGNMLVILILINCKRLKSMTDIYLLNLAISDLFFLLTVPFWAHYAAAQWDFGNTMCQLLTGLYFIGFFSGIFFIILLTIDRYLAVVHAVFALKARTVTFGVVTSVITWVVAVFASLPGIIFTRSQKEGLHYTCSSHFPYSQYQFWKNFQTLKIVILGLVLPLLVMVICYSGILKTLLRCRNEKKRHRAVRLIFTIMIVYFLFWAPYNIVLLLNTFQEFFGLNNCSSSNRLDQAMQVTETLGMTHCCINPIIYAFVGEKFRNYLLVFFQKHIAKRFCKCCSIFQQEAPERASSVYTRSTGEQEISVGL

D(4) dopamine receptor = target: T1, D(4) dopamine receptor (Homo sapiens, UniProt P21917); assay: DRUGMATRIX: Dopamine D4.2 radioligand binding (ligand: [3H] Spiperone); format: cell membranes, CHO-K1, Membrane; details: Not Active = under 50% inhibition at 10 µM
T1 sequence (P21917 whole entry): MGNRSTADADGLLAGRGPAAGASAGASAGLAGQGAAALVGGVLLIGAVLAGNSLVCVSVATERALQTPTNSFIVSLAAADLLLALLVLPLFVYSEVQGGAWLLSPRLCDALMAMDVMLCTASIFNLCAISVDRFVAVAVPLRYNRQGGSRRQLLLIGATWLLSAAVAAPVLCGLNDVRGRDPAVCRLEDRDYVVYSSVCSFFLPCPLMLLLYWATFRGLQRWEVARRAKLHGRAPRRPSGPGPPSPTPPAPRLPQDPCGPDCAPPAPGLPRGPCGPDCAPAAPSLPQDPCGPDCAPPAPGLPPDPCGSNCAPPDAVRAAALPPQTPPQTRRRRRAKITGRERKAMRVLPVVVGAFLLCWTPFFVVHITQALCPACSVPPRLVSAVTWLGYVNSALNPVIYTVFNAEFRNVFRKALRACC

[4] = DRUGMATRIX: Glutamate, AMPA radioligand binding (ligand: [3H] AMPA); format: cell membranes, Rattus norvegicus, Wistar, Cerebral cortex, Membrane; details: Not Active = under 50% inhibition at 10 µM
[5] = DRUGMATRIX: Imidazoline I2, Central radioligand binding (ligand: [3H] Idazoxan); format: cell membranes, Rattus norvegicus, Wistar, Cerebral cortex, Membrane; details: Not Active = under 50% inhibition at 10 µM
Insulin receptor = Insulin receptor (Rattus norvegicus, UniProt P15127); format: cell membranes, Wistar, Liver, Membrane; note: in other assays of this panel Not Active means under 50% inhibition at 10 µM
Insulin receptor, sequence (P15127 27-759 limits assumed): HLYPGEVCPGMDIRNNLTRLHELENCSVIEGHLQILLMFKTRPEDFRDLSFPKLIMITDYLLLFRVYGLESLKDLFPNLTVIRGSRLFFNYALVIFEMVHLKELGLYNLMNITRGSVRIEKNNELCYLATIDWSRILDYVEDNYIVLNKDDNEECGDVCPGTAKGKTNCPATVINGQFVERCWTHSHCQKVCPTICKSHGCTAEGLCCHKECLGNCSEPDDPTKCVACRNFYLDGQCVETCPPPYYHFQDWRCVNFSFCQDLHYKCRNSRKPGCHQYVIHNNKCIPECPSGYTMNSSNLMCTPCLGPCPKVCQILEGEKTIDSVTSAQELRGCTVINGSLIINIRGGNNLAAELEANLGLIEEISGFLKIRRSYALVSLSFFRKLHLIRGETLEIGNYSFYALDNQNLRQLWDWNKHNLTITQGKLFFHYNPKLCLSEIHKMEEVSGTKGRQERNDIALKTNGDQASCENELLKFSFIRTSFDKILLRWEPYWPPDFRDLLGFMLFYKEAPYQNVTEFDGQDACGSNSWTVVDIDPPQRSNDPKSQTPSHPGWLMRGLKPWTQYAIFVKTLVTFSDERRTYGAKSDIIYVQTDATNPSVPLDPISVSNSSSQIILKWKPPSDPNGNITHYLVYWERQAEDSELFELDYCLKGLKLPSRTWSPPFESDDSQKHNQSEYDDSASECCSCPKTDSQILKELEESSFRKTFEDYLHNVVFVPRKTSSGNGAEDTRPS
Insulin receptor, sequence (P15127 764-1383 limits assumed): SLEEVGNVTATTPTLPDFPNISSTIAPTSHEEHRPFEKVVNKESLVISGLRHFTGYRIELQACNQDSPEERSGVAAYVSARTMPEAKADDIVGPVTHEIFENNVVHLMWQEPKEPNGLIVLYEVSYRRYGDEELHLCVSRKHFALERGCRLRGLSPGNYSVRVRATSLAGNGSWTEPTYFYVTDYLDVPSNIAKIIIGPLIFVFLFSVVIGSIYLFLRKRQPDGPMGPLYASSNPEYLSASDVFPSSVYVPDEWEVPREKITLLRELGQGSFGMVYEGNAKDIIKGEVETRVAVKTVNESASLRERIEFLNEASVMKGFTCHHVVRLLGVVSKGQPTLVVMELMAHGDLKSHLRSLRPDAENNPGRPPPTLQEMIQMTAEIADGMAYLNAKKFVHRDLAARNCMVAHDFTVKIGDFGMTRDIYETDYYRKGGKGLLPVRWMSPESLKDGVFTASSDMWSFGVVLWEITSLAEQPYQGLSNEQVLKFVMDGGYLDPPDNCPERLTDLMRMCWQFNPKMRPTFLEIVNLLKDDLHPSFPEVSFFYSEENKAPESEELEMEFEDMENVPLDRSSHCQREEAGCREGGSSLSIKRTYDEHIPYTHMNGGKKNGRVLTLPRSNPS

[6] = target: T2, Angiotensin-converting enzyme (Oryctolagus cuniculus, UniProt P12822); assay: biochemical; format: tissue-based, Lung;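 note: enzymatic inhibition of angiotensin-converting enzyme measured with FAPGG as the substrate; in other assays of this panel Not Active means under 50% inhibition at 10 µM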
T2 sequence (P12822 whole entry): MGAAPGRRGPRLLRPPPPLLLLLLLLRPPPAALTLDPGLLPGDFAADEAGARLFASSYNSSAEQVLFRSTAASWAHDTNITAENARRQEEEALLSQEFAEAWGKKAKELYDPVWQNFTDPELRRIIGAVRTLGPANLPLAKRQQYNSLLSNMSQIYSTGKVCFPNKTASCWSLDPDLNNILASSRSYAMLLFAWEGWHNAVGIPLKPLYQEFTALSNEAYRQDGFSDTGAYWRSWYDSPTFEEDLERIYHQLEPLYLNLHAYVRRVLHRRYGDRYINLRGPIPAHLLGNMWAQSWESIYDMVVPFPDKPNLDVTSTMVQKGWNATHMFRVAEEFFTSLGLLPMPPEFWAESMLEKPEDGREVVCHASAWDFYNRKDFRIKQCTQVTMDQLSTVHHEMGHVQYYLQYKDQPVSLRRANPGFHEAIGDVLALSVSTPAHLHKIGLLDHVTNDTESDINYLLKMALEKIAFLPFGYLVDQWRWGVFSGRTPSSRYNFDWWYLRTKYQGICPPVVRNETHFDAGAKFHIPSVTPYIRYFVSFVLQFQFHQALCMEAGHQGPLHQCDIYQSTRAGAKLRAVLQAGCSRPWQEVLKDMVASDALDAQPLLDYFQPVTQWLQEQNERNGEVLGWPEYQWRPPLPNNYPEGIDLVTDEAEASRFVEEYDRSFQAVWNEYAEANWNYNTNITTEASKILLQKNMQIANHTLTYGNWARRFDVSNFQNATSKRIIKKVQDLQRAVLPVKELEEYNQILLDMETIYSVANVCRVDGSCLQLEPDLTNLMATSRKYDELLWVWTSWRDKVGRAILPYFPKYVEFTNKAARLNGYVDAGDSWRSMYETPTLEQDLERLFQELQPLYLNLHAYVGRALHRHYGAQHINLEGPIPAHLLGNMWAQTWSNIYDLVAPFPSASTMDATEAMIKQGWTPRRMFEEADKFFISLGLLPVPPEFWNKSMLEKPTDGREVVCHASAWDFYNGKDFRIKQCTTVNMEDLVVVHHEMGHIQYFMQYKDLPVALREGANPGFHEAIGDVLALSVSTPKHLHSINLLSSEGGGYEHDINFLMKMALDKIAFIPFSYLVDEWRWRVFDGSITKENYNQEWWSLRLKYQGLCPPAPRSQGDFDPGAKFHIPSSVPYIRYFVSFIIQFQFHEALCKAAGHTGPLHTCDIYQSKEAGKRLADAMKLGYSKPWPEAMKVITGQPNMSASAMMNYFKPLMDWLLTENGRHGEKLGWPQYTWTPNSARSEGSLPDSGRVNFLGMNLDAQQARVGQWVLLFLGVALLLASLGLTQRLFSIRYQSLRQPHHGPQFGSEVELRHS

[7] = target: Epidermal growth factor receptor (Homo sapiens, UniProt P00533); assay: DRUGMATRIX: Protein Tyrosine Kinase, EGF Receptor enzyme inhibition (substrate: Poly(Glu:Tyr)); format: cell-based, Insect cells; details: Not Active = under 50% inhibition at 10 µM
Epidermal growth factor receptor, sequence (P00533 whole entry): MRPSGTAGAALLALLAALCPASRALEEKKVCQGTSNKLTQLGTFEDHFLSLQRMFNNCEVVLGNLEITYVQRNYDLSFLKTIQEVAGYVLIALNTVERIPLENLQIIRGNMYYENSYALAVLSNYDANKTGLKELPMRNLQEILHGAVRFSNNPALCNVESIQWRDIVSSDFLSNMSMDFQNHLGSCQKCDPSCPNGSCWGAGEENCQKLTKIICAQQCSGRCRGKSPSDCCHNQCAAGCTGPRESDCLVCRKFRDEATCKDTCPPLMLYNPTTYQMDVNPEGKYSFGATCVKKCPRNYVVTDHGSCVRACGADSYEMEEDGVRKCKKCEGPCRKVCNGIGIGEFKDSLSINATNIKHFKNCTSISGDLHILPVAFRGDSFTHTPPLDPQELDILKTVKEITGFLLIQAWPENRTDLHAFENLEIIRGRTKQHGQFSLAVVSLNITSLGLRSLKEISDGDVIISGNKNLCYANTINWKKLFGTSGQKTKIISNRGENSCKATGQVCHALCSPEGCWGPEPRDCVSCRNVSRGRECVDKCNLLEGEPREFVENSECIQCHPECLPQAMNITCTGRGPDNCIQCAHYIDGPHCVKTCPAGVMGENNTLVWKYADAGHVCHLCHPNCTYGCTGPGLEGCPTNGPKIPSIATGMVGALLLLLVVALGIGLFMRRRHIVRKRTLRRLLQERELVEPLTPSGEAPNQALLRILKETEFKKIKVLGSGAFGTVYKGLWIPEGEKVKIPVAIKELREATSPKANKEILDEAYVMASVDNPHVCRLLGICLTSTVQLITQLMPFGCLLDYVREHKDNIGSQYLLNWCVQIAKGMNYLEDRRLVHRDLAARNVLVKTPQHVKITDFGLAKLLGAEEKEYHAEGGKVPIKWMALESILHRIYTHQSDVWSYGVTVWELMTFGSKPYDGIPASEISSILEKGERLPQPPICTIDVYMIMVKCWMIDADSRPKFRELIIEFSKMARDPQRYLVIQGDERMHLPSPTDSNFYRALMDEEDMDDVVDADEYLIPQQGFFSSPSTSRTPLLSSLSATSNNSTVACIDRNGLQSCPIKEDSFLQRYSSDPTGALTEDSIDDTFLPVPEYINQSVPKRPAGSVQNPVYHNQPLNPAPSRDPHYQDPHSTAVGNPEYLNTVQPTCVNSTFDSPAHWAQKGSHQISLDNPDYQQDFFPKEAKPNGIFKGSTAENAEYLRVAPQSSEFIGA

Cytochrome P450 2A6 = target: T3, Cytochrome P450 2A6 (Homo sapiens, UniProt P11509); details: bti-tn-5b1-4; note: in other assays of this panel Not Active means under 50% inhibition at 10 µM
T3 sequence (P11509 whole entry): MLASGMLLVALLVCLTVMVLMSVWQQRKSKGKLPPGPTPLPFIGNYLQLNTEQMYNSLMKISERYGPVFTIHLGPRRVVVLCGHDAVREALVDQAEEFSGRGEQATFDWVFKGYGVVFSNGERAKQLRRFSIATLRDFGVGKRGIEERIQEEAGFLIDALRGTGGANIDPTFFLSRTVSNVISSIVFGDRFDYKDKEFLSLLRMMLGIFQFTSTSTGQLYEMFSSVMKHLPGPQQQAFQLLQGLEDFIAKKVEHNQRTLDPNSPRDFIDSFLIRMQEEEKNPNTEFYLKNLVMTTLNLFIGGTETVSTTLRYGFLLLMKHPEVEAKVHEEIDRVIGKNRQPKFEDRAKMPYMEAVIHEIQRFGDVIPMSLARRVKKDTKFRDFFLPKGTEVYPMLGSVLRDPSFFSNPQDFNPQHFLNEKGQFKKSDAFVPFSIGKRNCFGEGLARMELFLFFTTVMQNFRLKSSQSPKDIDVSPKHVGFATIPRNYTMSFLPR

Beta-3 adrenergic receptor, sequence (P13945 whole entry): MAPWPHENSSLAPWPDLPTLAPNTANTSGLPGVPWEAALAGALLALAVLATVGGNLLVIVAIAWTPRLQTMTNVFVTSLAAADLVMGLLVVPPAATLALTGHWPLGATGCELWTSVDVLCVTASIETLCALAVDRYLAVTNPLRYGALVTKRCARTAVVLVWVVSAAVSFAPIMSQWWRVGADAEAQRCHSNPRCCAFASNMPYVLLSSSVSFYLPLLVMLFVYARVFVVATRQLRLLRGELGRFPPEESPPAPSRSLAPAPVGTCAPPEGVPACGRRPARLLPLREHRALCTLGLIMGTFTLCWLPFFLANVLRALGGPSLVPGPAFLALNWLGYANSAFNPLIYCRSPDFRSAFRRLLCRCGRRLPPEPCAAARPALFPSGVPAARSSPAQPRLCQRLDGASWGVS

CC(C)(C)NC(=O)[C@@H]1CN(Cc2cccnc2)CCN1C[C@@H](O)C[C@@H](Cc1ccccc1)C(=O)N[C@H]1c2ccccc2C[C@H]1O.O
Not Active: IC50 ([1]; hek293) | IC50 [2] | Ki [2] | IC50 [3] | IC50 (D(4) dopamine receptor; cho-k1) | IC50 [4] | Ki [4] | IC50 [5] | Ki [5] | IC50 (Insulin receptor) | IC50 [6] | IC50 ([7]; insect cells) | IC50 (Cytochrome P450 2A6) | Ki (Cytochrome P450 2A6)

COc1ccc(CCN2CCC(Nc3nc4ccccc4n3Cc3ccc(F)cc3)CC2)cc1 [ASTEMIZOLE]
6.06 µM: IC50 ([7]; read-out: IC50)
Not Active: IC50 [3] | IC50 (Insulin receptor) | IC50 [6] | IC50 (Cytochrome P450 2A6) | Ki (Cytochrome P450 2A6)

CN(C)CCCN1c2ccccc2CCc2ccc(Cl)cc21 [CLOMIPRAMINE]
Not Active: IC50 ([1]; hek293) | IC50 [3] | IC50 (D(4) dopamine receptor; cho-k1) | IC50 (Insulin receptor) | IC50 [6] | IC50 ([7]; insect cells) | IC50 (Cytochrome P450 2A6) | Ki (Cytochrome P450 2A6)

Clc1ccccc1C(c1ccccc1)(c1ccccc1)n1ccnc1 [CLOTRIMAZOLE]
5.41 µM: Ki ([1]; read-out: Ki)
19.9 µM: IC50 (D(4) dopamine receptor; read-out: IC50)
6.99 µM: Ki (D(4) dopamine receptor; read-out: Ki)
69.4 µM: IC50 ([7]; read-out: IC50)
7.21 µM: IC50 ([1]; read-out: IC50)
Not Active: IC50 [3] | IC50 (Insulin receptor) | IC50 [6] | IC50 (Cytochrome P450 2A6) | Ki (Cytochrome P450 2A6)

O=C(CCCN1CCC(O)(c2ccc(Cl)cc2)CC1)c1ccc(F)cc1 [HALOPERIDOL]
Not Active: IC50 ([1]; hek293) | IC50 [3] | IC50 (Insulin receptor) | IC50 [6] | IC50 ([7]; insect cells) | IC50 (Cytochrome P450 2A6) | Ki (Cytochrome P450 2A6)

CN1CCN2c3ccccc3Cc3ccccc3C2C1 (stereo not drawn) [MIANSERIN]
Not Active: IC50 ([1]; hek293) | IC50 [3] | IC50 (D(4) dopamine receptor; cho-k1) | IC50 (Insulin receptor) | IC50 [6] | IC50 ([7]; insect cells) | IC50 (Cytochrome P450 2A6) | Ki (Cytochrome P450 2A6)
